Results reported in patent publication US9902761B2, “Polypeptides, nucleic acids and uses thereof” (AGENCY FOR SCIENCE, TECHNOLOGY AND RESEARCH, priority 2013, dated 2018).
“Also recorded” adds a separate entry of the source.

Legend:
[1] = coronary artery disease / myocardial infarction, APELIN experiments repeated with ELABELA; format: in vivo
Source text: Peptides 2013; 46:76-82. • Li L, Zeng H, Chen J X. Apelin-13 increases myocardial progenitor cells and improves repair postmyocardial infarction. Am J Physiol Heart Cire Physiol 2012; 303:H605-18. • Pisarenko O I, Serebryakova L I, Pelogeykina Y A, et al. In vivo reduction of reperfusion injury to the heart with apelin-12 peptide in rats. Bull Exp Biol Med 2011; 152:79-82.

HIV-1 NL43 = test: HIV inhibition assay in P4C5 HeLa cells (β-gal activity); format: cell-based; conditions: CXCR4-tropic strain
[2] = pulmonary arterial hypertension, APELIN experiments repeated with ELABELA; conditions: in vivo
Source text: Am J Physiol Heart Circ Physiol 2009; 296:H2007-14.

hESCs [3] = test: survival of hESCs after single-cell dissociation (anoikis); format: cell-based, human; conditions: with or without Y-27632
Protocol: (§1) hESCs were dissociated into single cells using Accutase (Stem Cell Technologies) and plated in the presence of 10 μM Y-27632 (ROCK inhibitor) for 12 hours (Watanabe et al., 2007).

[4] = heart failure, APELIN experiments repeated with ELABELA; conditions: in vivo
Source text: Nature 2012 Aug. […] J Clin Invest. 2013 Nov. 1.

hESCs [5] = test: insulin replacement assay in hESCs; format: cell-based, human
Protocol: For insulin replacement assays, SHEF4 or HESC3 hESCs were cultured in TSER-E5 (Stem Cell Technologies) supplemented with TGF-β (5 ng/ml, R&D Systems) and bFGF (100 ng/ml, Invitrogen) with and without INSULIN (10 ug/ml, SIGMA).

hESCs [6] = test: FACS of stem cell surface markers SSEA3 and TRA-1-60 in hESCs; format: cell-based, human
CXCR4 = CXCR4 (Homo sapiens, UniProt P61073); test: PathHunter β-Arrestin CXCR4 assay, antagonist mode with SDF-1; format: cell-based; conditions: SDF-1 at EC80 concentration
Chain of CXCR4 (P61073 whole entry, the tested form may be a part): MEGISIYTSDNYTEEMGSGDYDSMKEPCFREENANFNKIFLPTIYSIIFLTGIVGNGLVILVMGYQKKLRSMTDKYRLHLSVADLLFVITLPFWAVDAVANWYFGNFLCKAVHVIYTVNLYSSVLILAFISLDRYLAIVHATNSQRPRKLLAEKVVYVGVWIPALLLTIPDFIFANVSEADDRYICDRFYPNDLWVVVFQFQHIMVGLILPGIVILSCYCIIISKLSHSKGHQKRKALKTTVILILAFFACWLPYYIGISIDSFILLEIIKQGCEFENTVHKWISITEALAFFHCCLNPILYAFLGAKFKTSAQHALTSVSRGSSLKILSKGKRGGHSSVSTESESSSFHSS
Protocol: To detect activation of CXCR4 by ELA or SDF-1, recombinant ELA or SDF-1 were added in increasing concentrations for 90-180 minutes to cells stably expressing CXCR4 coupled to a downstream reporter. β-Arrestin recruitment was measured using the PathHunter® β-Arrestin CXCR4 assay (DiscoveRx). Interaction of CXCR4 with Arrestin was detected by Enzyme Fragment Complementation (EFC) between two complementary domains of β-galactosidase (β-Gal), one fused to CXCR4 and the other fused to β-Arrestin. β-Arrestin recruitment to CXCR4 results in complementation of the two domains to generate β-Gal activity. % Ac ? vity=100%×(mean RLU of test sample−mean RLU of vehicle control)/(mean MAX control ligand−mean RLU of vehicle control). To detect antagonism of SDF-1 by ELA, the assay was run in antagonist mode by measuring the EC50 of ELA in the presence of SDF-1 at EC80 concentration. To detect synergism between ELA and SDF-1, the assay was run in positive allosteric mode by measuring the EC50 of ELA in the presence of SDF-1 at EC20 concentration.

[7] = system: primary human fibroblasts; test: growth and survival effect of recombinant ELA on primary fibroblasts; format: cell-based
Protocol: (§2) Primary human fibroblasts, SW1353 chondrosarcoma (ATCC) and NTERA2 hECs (a gift from Barbara Knowles and Davor Solter) were grown in Dulbecco's modified Eagle's medium (DMEM) with 10% FBS (Hyclone), 2 mM GlutaMAX™ (Invitrogen) and 1 mM sodium pyruvate. For xCELLigence real time growth assays, 4000 cells were plated per well of an E-plate (ACEA Biosciences) with media changes every 48 hours. […] Cell cycle studies were performed with Click-iT EDU staining kit (Invitrogen) and by performing a double thymidine block (2.5 mM thymidine; 16 hour block, 8 hour release, 16 hour block) followed by DAPI staining for DNA content at the indicated times following release.

[8] = system: human chondrosarcoma cell line; test: growth and survival effect of recombinant ELA on chondrosarcoma cells; format: cell-based
Protocol: as §2

hESCs [9] = test: stress-induced apoptosis of hESCs by ionizing radiation; format: cell-based, human
hESCs [10] = test: xCELLigence real time growth assay, cell counts and colony size of hESCs; format: cell-based, human
Protocol: Feeder-free hESCs were cultured in clumps in mTSER1 (Stem Cell Technologies) on Matrigel (BD 354277).
as §1
For xCELLigence real time growth assays, 4000 cells were plated per well of an E-plate (ACEA Biosciences) with media changes every 48 hours.
Recombinant ELA was added at 2.5 uM (or 10 μg/ml). Cell cycle studies were performed with Click-iT EDU staining kit (Invitrogen) and by performing a double thymidine block (2.5 mM thymidine; 16 hour block, 8 hour release, 16 hour block) followed by DAPI staining for DNA content at the indicated times following release.

PRAS40 = test: SILAC-based phosphoproteomic analysis of hESCs pulsed for 10 minutes; format: cell-based, human; conditions: 10 minute pulse, 5 uM
hESCs [11] = test: uptake of FITC-labeled recombinant peptide by hESCs (immunofluorescence); format: cell-based, human
[12] = myocardial ischaemia-reperfusion injury, APELIN experiments repeated with ELABELA; format: in vivo; conditions: administered during reperfusion
Source text: Peptides 2009; 30:1144-52. • Simpkin J C, Yellon D M, Davidson S M, Lim S Y, Wynne A M, Smith C C. […] Basic Res Cardiol 2007; 102:518-28.

[13] = artherosclerosis, APELIN experiments repeated with ELABELA; format: in vivo
Source text: J Clin Invest 2008; 118:3343-54.
The experiments described in the above publication are repeated, with the replacement of APELIN with ELABELA.

hESCs [14] = test: qPCR of mesendodermal markers in hESCs; format: cell-based, human
Protocol: After the indicated time periods, embryoid bodies were harvested and RNA extracted using RNeasy kit ([…]). qPCR reactions were carried out using either Universal FastSlart SYBR Green Mastermix (Roche) or using the Universal Probe Library system (Roche) in tandem with Taqman Fast Mastermix (Invitrogen). Primer sequences can be found in Table E1.

[15] = 3 hours after 1 Gray of γ irradiation

QRPVNLTMRRKLRKHNCLQRRCMPLHSRVPFP [ELA]
angiogenesis and cardiac repair postmyocardial infarction ([1]; in vivo): promote angiogenesis and ameliorate cardiac repair postmyocardial infarction | myocardial infarction size and damage to cardiomyocytes ([1]; injection): limit the myocardial infarction size and reduce damage to cardiomyocytes | inhibition of infection with HIV-1 NL43 (HIV-1 NL43): inhibits infection | concentration at which ELA inhibits HIV (HIV-1 NL43; HeLa cells, B-Gal activity after 36-48 hrs of infection): 10 to 40 µM | symptoms of pulmonary arterial hypertension [2]: alleviates symptoms of pulmonary arterial hypertension | survival following dissociation (anoikis) (hESCs [3]): able to increase survival following dissociation | protection against heart failure [4]: able to provide protection against heart failure | growth rescue of shELA hESCs under INSULIN deprivation (hESCs [5]): intermediate growth rescue | levels of cell surface markers SSEA3 and TRA-1-60 (hESCs [6]): unchanged levels | antagonism of SDF1-mediated CXCR4 activation (CXCR4): preventing SDF1-mediated CXCR4 activation | activity of recombinant ELA on primary human fibroblasts [7]: exerted activity only on hESCs cultures and no other differentiated cell types | activity of recombinant ELA on human chondrosarcoma cell line [8]: exerted activity only on hESCs cultures and no other differentiated cell types | rescue of the irradiation sensitivity of shELA hESCs (hESCs [9]): rescued this phenotype | activated CASPASE 3 after irradiation (hESCs [9]; [15]): almost undetectable | γH2AX foci after irradiation (hESCs [9]; [15]): comparable numbers of γH2AX foci | rescue of the growth of shELA hESCs (hESCs [10]; addition of recombinant peptide to shELA hESCs): entirely rescued to normal levels | concentration range in which the recombinant peptide is bioactive (hESCs [10]; hESCs): bioactive only in the μM range; also recorded: works in the μM range | phosphopeptide LNpTSDFQK derived from PRAS40 (PRAS40): Among the top phosphopeptides activated by ELA | uptake by hESCs (hESCs [11]): rapidly up-taken by hESCs | infarct size [12]: significantly decrease infarct size | protection against artherosclerosis ([13]; Ang II): can protect against artherosclerosis | abdominal aortic aneurysm formation and rupture ([13]; in vivo): inhibit abdominal aortic aneurysm formation and rupture | expression of mesendodermal genes GATA6, GATA4, FOXA2, EOMES and BRA (hESCs [14]): consistently upregulated
